Results from ChEMBL document CHEMBL6078687 (J Med Chem, 2024).
pEC50, pIC50: −log10 of the molar value.

How the values were obtained:
[1] = in vitro; details: human, liver microsomes
[2] = in vitro; details: human, liver microsomes; remark: listed apart in the source
[3] = Cytotoxicity against MDCK cells incubated for 48 hrs by MTT assay; assay type: toxicity, cell-based, Canis lupus familiaris; details: dog
[4] = Inhibition of neuraminidase in Influenza A virus A/Babol/36/2005 H3N2 using MUNANA as substrate incubated for 40 mins by […] based assay
[5] = Inhibition of neuraminidase in Influenza A virus A/Goose/Guangdong/SH7/2013 H5N1 using MUNANA as substrate incubated for 40 mins by […] based assay
[6] = Cytotoxicity against CEF cells incubated for 48 hrs by CCK8 assay; assay type: toxicity, cell-based, Gallus gallus; details: chicken
[7] = test system: Influenza A virus; experiment: Antiviral activity against Influenza A virus A/WSN/67/05 H3N2 infected in MDCK cells assessed as inhibition of plaque formation measured after 2 days; details: A/WSN/67/05 H3N2, MDCK, 48 h
[8] = test system: Influenza A virus; experiment: microbe, parasite or virus in culture; details: A/Goose/Guangdong/SH7/2013 H5N1, CEF, 48 h
[9] = test system: Influenza A virus; experiment: microbe, parasite or virus in culture; details: A/Goose/Jiangsu/1306/2014 H5N8, CEF, 48 h
[10] = test system: Influenza A virus; experiment: microbe, parasite or virus in culture; details: A/PR/8/34 H1N1, MDCK, 48 h
[11] = in vitro; details: human, liver microsomes; remark: listed apart in the source
[12] = Metabolic stability in human liver microsomes assessed as compound remaining incubated for 60 mins by LC-MS/MS analysis; assay type: ADME, Microsome; details: 1 h

SMILES	pIC50 [4]	pIC50 [5]	other results
O=C(O)Cc1ccccc1Nc1c(Cl)cccc1Cl [DICLOFENAC]			microsomal CLint at 2 h [1]: 222 µL/min/mg; CLint scaled at 2 h [2]: 200 mL/min/kg
CCC(CC)O[C@@H]1C=C(C(=O)O)C[C@H](NCc2ccc(OCc3ccc(B(O)O)cc3)cc2Cl)[C@H]1NC(C)=O	6.92	7.66	EC50 at 48 h [3]: > 250 µM; CC50 at 48 h [6]: > 200 µM; pEC50 [7]: 5.37; pEC50 [8]: 5.45; pEC50 [9]: < 4.40; pEC50 [10]: 7.52
CCC(CC)O[C@@H]1C=C(C(=O)O)C[C@H](NCc2cccc(OCc3ccccc3B(O)O)c2)[C@H]1NC(C)=O	5.10	5.15	
CCC(CC)O[C@@H]1C=C(C(=O)O)C[C@H](NCc2ccc(OCc3ccc(B(O)O)cc3)cc2Br)[C@H]1NC(C)=O	6.47	7.15	
CCC(CC)O[C@@H]1C=C(C(=O)O)C[C@H](NCc2cc(C)c(OCc3cccc(B(O)O)c3)c(C)c2)[C@H]1NC(C)=O	5.06	4.49	
CCC(CC)O[C@@H]1C=C(C(=O)O)C[C@H](NCc2ccc(OCc3cccc(B(O)O)c3)c(F)c2)[C@H]1NC(C)=O	5.74	7.14	
CCC(CC)O[C@@H]1C=C(C(=O)O)C[C@H](NCc2ccc(OCc3cccc(B(O)O)c3)c(OC)c2)[C@H]1NC(C)=O	4.63	4.36	
CCC(CC)O[C@@H]1C=C(C(=O)O)C[C@H](NCc2ccccc2OCc2cccc(B(O)O)c2)[C@H]1NC(C)=O	5.29	5.83	
CCC(CC)O[C@@H]1C=C(C(=O)O)C[C@H](NCc2cccc(C(=O)Nc3cccc(B(O)O)c3)c2)[C@H]1NC(C)=O	6.64	6.39	
C[C@]12CC[C@H]3[C@@H](CCC4=CC(=O)CC[C@@]43C)[C@@H]1CC[C@@H]2O [TESTOSTERONE]			remaining at 2 h [11]: 4.1%
CCC(CC)O[C@@H]1C=C(C(=O)O)C[C@H](NCc2ccc(OCc3ccc(B(O)O)cc3)c(Cl)c2)[C@H]1NC(C)=O	5.14	5.40	
CCC(CC)O[C@@H]1C=C(C(=O)O)C[C@H](NCc2ccc(OCc3cccc(B(O)O)c3)c(C)c2)[C@H]1NC(C)=O	4.94	5.09	
CCC(CC)O[C@@H]1C=C(C(=O)O)C[C@H](NCc2ccc(OCc3cccc(B(O)O)c3)c(Cl)c2)[C@H]1NC(C)=O	5.18	5.56	
CCC(CC)O[C@@H]1C=C(C(=O)O)C[C@H](NCc2cccc(C(=O)Nc3ccc(B(O)O)cc3)c2)[C@H]1NC(C)=O	5.18	5.98	
CC(=O)N[C@H]1[C@H]([C@H](O)[C@H](O)CO)OC(C(=O)O)=C[C@@H]1NC(=N)N [ZANAMIVIR]	7.42		
CCC(CC)O[C@@H]1C=C(C(=O)O)C[C@H](NCc2ccc(-c3ccsc3)cc2OC)[C@H]1NC(C)=O	5.07	5.82	
CCC(CC)O[C@@H]1C=C(C(=O)O)C[C@H](NCc2ccc(OCc3cccc(B(O)O)c3)cc2OC)[C@H]1NC(C)=O	6.02	6.10	
CCC(CC)O[C@@H]1C=C(C(=O)O)C[C@H](NCc2ccc(Oc3cccc(B(O)O)c3)cc2)[C@H]1NC(C)=O	6.12	6.85	
CCC(CC)O[C@@H]1C=C(C(=O)O)C[C@H](NCc2ccc(OCc3ccc(B(O)O)cc3)cc2F)[C@H]1NC(C)=O	6.40	7.06	EC50 at 48 h [3]: > 250 µM; CC50 at 48 h [6]: > 500 µM; pEC50 [7]: 4.73; pEC50 [8]: 5.80; pEC50 [9]: 5.40; pEC50 [10]: 7.54
CCC(CC)O[C@@H]1C=C(C(=O)O)C[C@H](NCc2cccc(OCc3ccc(B(O)O)cc3)c2)[C@H]1NC(C)=O	5.48	5.94	
CCC(CC)O[C@@H]1C=C(C(=O)O)C[C@H](NCc2c(C)cc(OCc3ccc(B(O)O)cc3)cc2C)[C@H]1NC(C)=O	6.13	6.57	

SMILES	pIC50 [4]	pIC50 [5]	other results
CCC(CC)O[C@@H]1C=C(C(=O)O)C[C@H](NCc2ccc(OCc3cccc(B(O)O)c3)c(B(O)O)c2)[C@H]1NC(C)=O	5.75	7.12	
CCC(CC)O[C@@H]1C=C(C(=O)O)C[C@H](NCc2ccc(OCc3cccc(B(O)O)c3)c(Br)c2)[C@H]1NC(C)=O	4.85	5.16	
CCC(CC)O[C@@H]1C=C(C(=O)O)C[C@H](NCc2cccc(OCc3cccc(B(O)O)c3)c2)[C@H]1NC(C)=O	5.36	5.31	
CCC(CC)O[C@@H]1C=C(C(=O)O)C[C@H](NCc2cc(C)c(OCc3ccc(B(O)O)cc3)c(C)c2)[C@H]1NC(C)=O	4.38	4.72	
CCC(CC)O[C@@H]1C=C(C(=O)O)C[C@H](NCc2ccc(OCc3ccc(B(O)O)cc3)cc2C)[C@H]1NC(C)=O	6.96	7.13	EC50 at 48 h [3]: > 250 µM; CC50 at 48 h [6]: > 200 µM; pEC50 [7]: 4.97; pEC50 [8]: 5.19; pEC50 [9]: 5.45; pEC50 [10]: 7.96
CCC(CC)O[C@@H]1C=C(C(=O)O)C[C@H](NCc2ccc(-c3cccs3)cc2OC)[C@H]1NC(C)=O	5.68	5.78	
CCC(CC)O[C@@H]1C=C(C(=O)O)C[C@H](NCc2ccc(OCc3ccc(B(O)O)cc3)c(F)c2)[C@H]1NC(C)=O	6.19	7.00	
CCC(CC)O[C@@H]1C=C(C(=O)O)C[C@H](NCc2ccc(C(=O)Nc3cccc(B(O)O)c3)cc2)[C@H]1NC(C)=O	4.77	5.93	
CCC(CC)O[C@@H]1C=C(C(=O)O)C[C@H](N)[C@H]1NC(C)=O [OSELTAMIVIR CARBOXYLATE]	8.05	7.21	EC50 at 48 h [3]: > 250 µM; CC50 at 48 h [6]: > 200 µM; pEC50 [7]: 6.12; Stability [12]: 114.6%; microsomal CLint at 2 h [1]: 13.1 µL/min/mg; CLint scaled at 2 h [2]: 11.8 mL/min/kg; pEC50 [8]: 5.75; pEC50 [9]: 5.06; pEC50 [10]: 7.25
CCC(CC)O[C@@H]1C=C(C(=O)O)C[C@H](NCc2ccc(C(=O)Nc3ccc(B(O)O)cc3)cc2)[C@H]1NC(C)=O	5.79	6.01	
CCC(CC)O[C@@H]1C=C(C(=O)O)C[C@H](NCc2ccc(OCc3ccc(B(O)O)cc3)cc2OC)[C@H]1NC(C)=O	6.29	5.76	
CCC(CC)O[C@@H]1C=C(C(=O)O)C[C@H](NCc2ccc(OCc3ccc(B(O)O)cc3)c(C)c2)[C@H]1NC(C)=O	4.78	5.09	
CCC(CC)O[C@@H]1C=C(C(=O)O)C[C@H](NCc2ccc(OCc3cccc(B(O)O)c3)cc2F)[C@H]1NC(C)=O	5.84	7.42	EC50 at 48 h [3]: > 250 µM; CC50 at 48 h [6]: 170 µM; pEC50 [7]: < 4.00; pEC50 [8]: 5.20; pEC50 [9]: 5.16; pEC50 [10]: 7.59
CCC(CC)O[C@@H]1C=C(C(=O)O)C[C@H](NCc2ccc(OCc3cccc(B(O)O)c3)cc2Br)[C@H]1NC(C)=O	6.33	7.09	
CCC(CC)O[C@@H]1C=C(C(=O)O)C[C@H](NCc2ccc(OCc3ccc(B(O)O)cc3)c(Br)c2)[C@H]1NC(C)=O	4.77	3.03	
CCC(CC)O[C@@H]1C=C(C(=O)O)C[C@H](NCc2ccccc2OCc2ccc(B(O)O)cc2)[C@H]1NC(C)=O	5.07	5.89	
CCC(CC)O[C@@H]1C=C(C(=O)O)C[C@H](NCc2ccc(Oc3ccc(B(O)O)cc3)cc2)[C@H]1NC(C)=O	5.84	7.44	
CCC(CC)O[C@@H]1C=C(C(=O)O)C[C@H](NCc2ccc(OCc3ccc(B(O)O)cc3)c(OC)c2)[C@H]1NC(C)=O	4.54	4.29	
CCC(CC)O[C@@H]1C=C(C(=O)O)C[C@H](NCc2c(C)cc(OCc3cccc(B(O)O)c3)cc2C)[C@H]1NC(C)=O	6.19	7.62	EC50 at 48 h [3]: > 250 µM; CC50 at 48 h [6]: > 200 µM; pEC50 [7]: < 4.00; pEC50 [8]: 5.60; pEC50 [9]: 5.04; pEC50 [10]: 7.85
CC(C)NCC(O)COc1cccc2ccccc12 (stereo not drawn) [PROPRANOLOL]			remaining at 2 h [11]: 0.5%
